Values of other authors, collected in US20250333422A1, “AMORPHOUS BERBERINE WITH ENHANCED BIOAVAILABILITY” (Nature's Way Products, LLC, priority 2024, published 2025).
Where a name gives a salt, the structure may show the parent alone.

Key:
[1] = berberine metabolites
[2] = not given; remark: listed apart in the source

| SMILES | biological activities for antioxidative, hepatoprotective, and hypolipidemic effects [1] | also measured |
| --- | --- | --- |
| COc1ccc2cc3[n+](cc2c1OC)CCc1cc2c(cc1-3)OCO2 [Berberine, Berberine HCl] |  | share of dose that goes into the lower bowel unabsorbed (oral dose): 99%; bioavailability (standard crystalline berberine, oral): < 1% |
| COc1ccc2cc3[n+](cc2c1O)CCc1cc2c(cc1-3)OCO2 [berberrubine] | showed biological activities |  |
| COc1ccc2cc3[n+](cc2c1OC)CCc1cc(O)c(O)cc1-3 [demethyleneberberine] | showed biological activities |  |
| COc1ccc2c(c1OC)CN1CCc3cc4c(cc3C1=C2)OCO4 [dhBB, dihydroberberine] |  | bioavailability of berberine versus an oral dosage of standard berberine [2]: 5 times |
| COc1cc2c(cc1O)CC[n+]1cc3c(OC)c(OC)ccc3cc1-2 [jatrorrhizine] | showed biological activities |  |
| COc1c(O)ccc2cc3[n+](cc12)CCc1cc2c(cc1-3)OCO2 [thalifendine] | showed biological activities |  |
